The test system of experiment [1] is Sandhoff disease patient fibroblasts. Nature of the experiment: Glycosphingolipid (GSL) levels by HPLC in Sandhoff disease patient fibroblasts. It counts as cell-based, human. The settings on record: 1 mM for 6 days.
In experiment [2] the test system is patient genetically diagnosed with GM1 Gangliosidosis. Kind of experiment: Case study of a GM1 Gangliosidosis patient (SARA, mRDS, EQ-5D-5L). The following applies: after one month. It counts as in vivo, human. The source says:
The patient in this case study was a person who was genetically diagnosed with GM1 Gangliosidosis and who was not able to stand or walk by themself, was very limited in daily activities (eating, washing, dressing themself was not possible), and had ocular movement disorder, anarthria, and distinct problems in cognitive function and concentration (neurological examination was not possible).
Before treatment was commenced, examination of the patient indicated a Scale for Assessment and Rating of Ataxia (SARA) score of 35/40, a mRDS score of 15, and a EQ-5D-5L visual scale of 50.
The patient was started on therapy with acetyl-leucine at a dose of 1.5 g per day for the first week, followed by a dose of 3 g per day for the second week onwards.

In the next experiment the test system is patients with ataxia. The following applies: Becker-Bense et al. 2015; cited from earlier work.

As to `CC(=O)NC(CC(C)C)C(=O)O` (racemic) [acetyl-DL-leucine], the “GSL levels (GSL storage)” value in experiment [1] was “trend towards decreased GSL levels”. In addition, in experiment [2] (1.5 g then 3 g per day), the SARA is listed as 35/40. Moreover, in experiment [2], the Clinical re-examination findings entry was “stable general condition, increased gait (more fluent), and stable stance in natural position”; the mRDS is 16. Further, the “Brain metabolism by PET” value with patients with ataxia is “increased metabolism in the midbrain and lower brainstem in responders”.

The values are drawn from patent publication US12433863B2, “Pharmaceutical compositions and uses directed to lysosomal storage disorders” (INTRABIO LIMITED, priority 2016, dated 2025).
